US20100105655A1, “NOVEL COMPOUNDS 515” (ASTRAZENECA AB, priority 2008, published 2010)
pIC50: −log10 of the molar value.

molecular target: T1, IGFR kinase (Homo sapiens, UniProt P08069); experiment: Enzyme assay (c), IGFR kinase, Caliper LabChip; type: biochemical; conditions: 30 nM IGFR kinase, 6 uM ATP, 3 uM peptide mix; read-out: IGFR IC50
T1 construct: purchased Millipore
Experimental: For Echo dosing the solvent was 100% DMSO. A master plate was prepared with 40 ul of 10 mM stock solution of the test compound in DMSO in quadrant 1 of a Labcyte 384 well plate. A 1 in 100 dilution was made from quadrant 1 into quadrant 2 by removing 0.4 ul and adding it to 39.6 ul of DMSO. Subsequent 1 in 100 dilutions were made into quadrant 3 from quadrant 2 and quadrant 4 from quadrant 3.
Multiple 2.5 nl droplets were dispensed from each quadrant of the master plate to generate the dose range that was required in the test. The dose range most commonly used was as follows: 100 uM, 30 uM, 10 uM, 3 uM, 1 uM, 0.3 uM, 0.1 uM, 0.03 uM, 0.01 uM, 0.003 uM, 0.001 uM, 0.0001 uM. Each well was backfilled with dimethyl sulfoxide (DMSO) to a total volume of 120 nl, such that when the enzyme and substrate mix was added the final DMSO concentration was 1%.
DMSO was added to max control wells as 120 nl, minimum control wells were treated with 120 nl of compound at a concentration that inhibited the enzyme activity 100%.
Integration of the substrate and product peaks was carried out using Caliper LabChip software and IC50 curves were calculated using Origin™ software.

T1 sequence (P08069 31-1367): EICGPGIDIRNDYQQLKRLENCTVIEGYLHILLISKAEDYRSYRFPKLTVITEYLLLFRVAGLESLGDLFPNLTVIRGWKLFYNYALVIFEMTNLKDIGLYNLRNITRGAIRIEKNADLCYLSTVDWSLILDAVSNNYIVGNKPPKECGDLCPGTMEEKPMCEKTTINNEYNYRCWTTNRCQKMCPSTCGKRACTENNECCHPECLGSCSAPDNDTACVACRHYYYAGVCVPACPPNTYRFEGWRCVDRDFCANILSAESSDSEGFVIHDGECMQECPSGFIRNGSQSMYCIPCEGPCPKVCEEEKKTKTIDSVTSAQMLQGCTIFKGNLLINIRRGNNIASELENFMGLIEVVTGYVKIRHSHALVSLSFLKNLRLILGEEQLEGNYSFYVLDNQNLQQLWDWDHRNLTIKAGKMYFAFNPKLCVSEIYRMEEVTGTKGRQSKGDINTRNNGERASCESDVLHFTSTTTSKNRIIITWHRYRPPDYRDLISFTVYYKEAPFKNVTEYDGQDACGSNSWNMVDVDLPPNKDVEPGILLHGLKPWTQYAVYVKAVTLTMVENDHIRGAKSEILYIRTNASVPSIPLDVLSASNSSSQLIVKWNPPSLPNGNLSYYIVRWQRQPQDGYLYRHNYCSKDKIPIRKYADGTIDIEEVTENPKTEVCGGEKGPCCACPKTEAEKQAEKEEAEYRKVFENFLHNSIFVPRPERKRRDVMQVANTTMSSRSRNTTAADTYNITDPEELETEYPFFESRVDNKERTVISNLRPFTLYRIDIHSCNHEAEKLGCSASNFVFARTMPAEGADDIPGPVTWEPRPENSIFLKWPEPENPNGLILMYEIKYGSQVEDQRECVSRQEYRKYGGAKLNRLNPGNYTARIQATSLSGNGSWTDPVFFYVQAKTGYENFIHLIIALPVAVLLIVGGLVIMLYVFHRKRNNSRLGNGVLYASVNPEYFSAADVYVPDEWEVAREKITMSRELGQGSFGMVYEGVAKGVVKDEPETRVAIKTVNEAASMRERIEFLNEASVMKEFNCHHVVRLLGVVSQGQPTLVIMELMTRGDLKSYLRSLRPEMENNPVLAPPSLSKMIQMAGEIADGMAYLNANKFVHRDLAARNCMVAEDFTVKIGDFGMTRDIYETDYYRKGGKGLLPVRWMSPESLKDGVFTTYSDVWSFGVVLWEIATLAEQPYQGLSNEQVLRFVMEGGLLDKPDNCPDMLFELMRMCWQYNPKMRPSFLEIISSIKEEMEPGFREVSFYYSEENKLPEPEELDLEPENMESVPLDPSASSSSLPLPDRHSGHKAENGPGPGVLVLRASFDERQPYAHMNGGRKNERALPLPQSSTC

| Compound | pIC50 |
| --- | --- |
| COc1cc(N2CCN(C(=O)[C@H](C)N)CC2)ccc1Nc1ncc(Cl)c(-c2cnc3cc(C)ccn23)n1 [Example 258, (2S)-2-amino-1-[4-[4-[[5-chloro-4-(7-methylimidazo[1,2-a]pyridin-3-yl)pyrimidin-2-yl]amino]-3-methoxy-phenyl]piperazin-1-yl]propan-1-one] | 8.30 |
| CNCC(=O)N1CCC(c2ccc(Nc3ncc(C)c(-c4cnn5ccccc45)n3)c(OC)c2)CC1 [Example 237, 1-[4-[3-methoxy-4-[(5-methyl-4-pyrazolo[1,5-a]pyridin-3-yl-pyrimidin-2-yl)amino]phenyl]-1-piperidyl]-2-(methylamino)ethanone] | 8.10 |
| COc1cc(C2CCNCC2)ccc1Nc1ncc(Cl)c(-c2cnc3ccc(F)cn23)n1 [Example 247, 5-chloro-4-(6-fluoroimidazo[1,2-a]pyridin-3-yl)-N-[2-methoxy-4-(4-piperidyl)phenyl]pyrimidin-2-amine] | 8.52 |
| COc1cc(O[C@@H]2CCN(C(=O)C(C)O)C2)ccc1Nc1ncc(Cl)c(-c2cnc3ccccn23)n1 (mixture of isomers) [Example 12, 1-[(3R)-3-[4-[(5-chloro-4-imidazo[1,2-a]pyridin-3-yl-pyrimidin-2-yl)amino]-3-methoxy-phenoxy]pyrrolidin-1-yl]-2-hydroxy-propan-1-one] | 7.66 |
| COc1cc(N2CCN(C(C)=O)CC2)ccc1Nc1ncc(Cl)c(-c2cnc3cc(CN(C)C)ccn23)n1 [Example 185, 1-[4-[4-[[5-chloro-4-[7-(dimethylaminomethyl)imidazo[1,2-a]pyridin-3-yl]pyrimidin-2-yl]amino]-3-methoxy-phenyl]piperazin-1-yl]ethanone] | 6.77 |
| COc1cc(N2CCN(C(C)(C)CO)CC2)ccc1Nc1ncc(F)c(-c2cnc3ccc(F)cn23)n1 [Example 261, 2-[4-[4-[[5-fluoro-4-(6-fluoroimidazo[1,2-a]pyridin-3-yl)pyrimidin-2-yl]amino]-3-methoxy-phenyl]piperazin-1-yl]-2-methyl-propan-1-ol] | 7.64 |
| COc1cc(N2CCN(CCO)CC2)ccc1Nc1ncc(Br)c(-c2cnc3ccccn23)n1 [Example 115, 2-[4-[4-[(5-bromo-4-imidazo[1,2-a]pyridin-3-yl-pyrimidin-2-yl)amino]-3-methoxy-phenyl]piperazin-1-yl]ethanol] | 8.30 |
| COc1cc(N2CC[C@@H](N(C)C)C2)ccc1Nc1ncc(F)c(-c2cnc3ccccn23)n1 [Example 76, N-[4-[(3R)-3-dimethylaminopyrrolidin-1-yl]-2-methoxy-phenyl]-5-fluoro-4-imidazo[1,2-a]pyridin-3-yl-pyrimidin-2-amine] | 7.48 |
| COc1cc(N2CCN(C(C)=O)CC2)ccc1Nc1ncc(Cl)c(-c2cnc3cc(CN4CCOCC4)ccn23)n1 [Example 187, 1-[4-[4-[[5-chloro-4-[7-(morpholinomethyl)imidazo[1,2-a]pyridin-3-yl]pyrimidin-2-yl]amino]-3-methoxy-phenyl]piperazin-1-yl]ethanone] | 7.37 |
| COc1cc(CN2CC[C@H](O)C2)ccc1Nc1ncc(Cl)c(-c2cnc3ccccn23)n1 [Example 20, (3S)-1-[[4-[(5-chloro-4-imidazo[1,2-a]pyridin-3-yl-pyrimidin-2-yl)amino]-3-methoxy-phenyl]methyl]pyrrolidin-3-ol] | 7.72 |
| COc1cc(N2CCN(C[C@H](C)O)CC2)ccc1Nc1ncc(Cl)c(-c2cnc3ccccn23)n1 [Example 50, (2S)-1-[4-[4-[(5-chloro-4-imidazo[1,2-a]pyridin-3-yl-pyrimidin-2-yl)amino]-3-methoxy-phenyl]piperazin-1-yl]propan-2-ol] | 8.10 |
| COc1cc(C2CCN(C(C)=O)CC2)ccc1Nc1ncc(C2CC2)c(-c2cnc3c(F)cccn23)n1 [Example 202, 1-[4-[4-[[5-cyclopropyl-4-(8-fluoroimidazo[1,2-a]pyridin-3-yl)pyrimidin-2-yl]amino]-3-methoxy-phenyl]-1-piperidyl]ethanone] | 7.02 |
| CNCC(=O)N1CCN(c2ccc(Nc3ncc(C)c(-c4cnn5ccccc45)n3)c(OC)c2)CC1 [Example 160, 1-[4-[3-methoxy-4-[(5-methyl-4-pyrazolo[1,5-a]pyridin-3-yl-pyrimidin-2-yl)amino]phenyl]piperazin-1-yl]-2-(methylamino)ethanone] | 7.85 |

Now from value to molecule:

| pIC50 | Compound |
| --- | --- |
| 8.05 | COc1cc(N2CCN(C(=O)N(C)CCO)CC2)ccc1Nc1ncc(Cl)c(-c2cnc3ccccn23)n1 [Example 47.1, 4-[4-[(5-chloro-4-imidazo[1,2-a]pyridin-3-yl-pyrimidin-2-yl)amino]-3-methoxy-phenyl]-N-(2-hydroxyethyl)-N-methyl-piperazine-1-carboxamide] |
| 8.10 | COc1cc(N2CCN(C(=O)[C@H]3CCCCN3)CC2)ccc1Nc1ncc(Cl)c(-c2cnc3ccccn23)n1 [Example 24.1, [4-[4-[(5-chloro-4-imidazo[1,2-a]pyridin-3-yl-pyrimidin-2-yl)amino]-3-methoxy-phenyl]piperazin-1-yl]-[(2R)-2-piperidyl]methanone] |
| 7.72 | COc1cc(CNCCO)ccc1Nc1ncc(Cl)c(-c2cnc3ccccn23)n1 [Example 21.1, 2-[[4-[(5-chloro-4-imidazo[1,2-a]pyridin-3-yl-pyrimidin-2-yl)amino]-3-methoxy-phenyl]methylamino]ethanol] |
| 7.66 | COc1cc(OC2CN(C(=O)CO)C2)ccc1Nc1ncc(Cl)c(-c2cnc3ccccn23)n1 [Example 27.3, 1-[3-[4-[(5-chloro-4-imidazo[1,2-a]pyridin-3-yl-pyrimidin-2-yl)amino]-3-methoxy-phenoxy]azetidin-1-yl]-2-hydroxy-ethanone] |
| 7.96 | COc1cc(O[C@@H]2CCNC2)ccc1Nc1ncc(Cl)c(-c2cnc3ccccn23)n1 [Example 6.5, 5-chloro-4-imidazo[1,2-a]pyridin-3-yl-N-[2-methoxy-4-[(3R)-pyrrolidin-3-yl]oxy-phenyl]pyrimidin-2-amine] |
| 7.55 | COc1cc(CN2CCCOCC2)ccc1Nc1ncc(Cl)c(-c2cnc3ccccn23)n1 [Example 21.14, 5-chloro-4-imidazo[1,2-a]pyridin-3-yl-N-[2-methoxy-4-(1,4-oxazepan-4-ylmethyl)phenyl]pyrimidin-2-amine] |
| 7.37 | COc1ccc(N2CCC(OC)CC2)cc1Nc1ncc(Cl)c(-c2cnc3ccccn23)n1 [Example 3.20, 5-chloro-4-imidazo[1,2-a]pyridin-3-yl-N-[2-methoxy-5-(4-methoxy-1-piperidyl)phenyl]pyrimidin-2-amine] |
| 6.90 | COc1ccc(N2CC[C@H](N(C)C)C2)cc1Nc1ncc(Cl)c(-c2cnc3ccccn23)n1 [Example 3.17, 5-chloro-N-[5-[(3S)-3-dimethylaminopyrrolidin-1-yl]-2-methoxy-phenyl]-4-imidazo[1,2-a]pyridin-3-yl-pyrimidin-2-amine] |
| 7.59 | COc1cc(CN[C@H](C)CO)ccc1Nc1ncc(Cl)c(-c2cnc3ccccn23)n1 [Example 21.15, (2R)-2-[[4-[(5-chloro-4-imidazo[1,2-a]pyridin-3-yl-pyrimidin-2-yl)amino]-3-methoxy-phenyl]methylamino]propan-1-ol] |
| 7.96 | COc1cc(N2CCN(S(=O)(=O)N(C)C)CC2)ccc1Nc1ncc(Cl)c(-c2cnc3ccccn23)n1 [Example 3.7, 4-[4-[(5-chloro-4-imidazo[1,2-a]pyridin-3-yl-pyrimidin-2-yl)amino]-3-methoxy-phenyl]-N,N-dimethyl-piperazine-1-sulfonamide] |
